According to article PMC5847048 (Psychopharmacology, 2017):

Columns and labels:
[1] = tested on: aged mice (22–24 months old); parameters: method as in Marighetto et al., [2008b]; settings: ref Marighetto et al., [2008b], cited from earlier work
[2] = tested on: aged mice (22–24 months old); assay: Radial maze working memory task; type: in vivo, mouse; settings: donepezil 0.3 mg/kg s.c.; aged mice
Description: In the radial arm maze task, treatments were administered subcutaneously (s.c.) once a day 60 min prior to testing from the 2 days of habituation to the 12 days of memory testing.
The radial maze (Imetronic system, Pessac, France) was fully automated and enabled by video-tracking automatic testing and recording. Briefly, each mouse was separately assigned to six adjacent arms which were grouped into three pairs (A, B, C). These three pairs were presented repeatedly among the successive trials of each testing session. The location of the food reward varied in each pair according to an alternation rule among successive trials. Namely, among the two arms opened in a specific trial, the food was inserted in the arm which was not visited in the previous trial within the same pair. The mouse must therefore remember which of the two arms was visited in a specific trial until next presentation of the same pair, and so on in order to alternate its choice among successive presentations of any pair. At the beginning of each daily session, the mouse was placed in the central platform of the radial maze with all arms closed. One pair of arms only was opened at the beginning of each trial, and the mouse was required to visit one arm. The door of the non-chosen arm was closed as soon as the mouse reached the end of the chosen arm. The mouse was allowed to run back to the central platform of his own accord, and then, the door of the chosen arm was closed. The mouse remained in the central platform until the following trial (intertrial interval 10 s). Since three pairs were concurrently used, three specific arm visits must be kept in memory by the mouse until their utilization by using short-term working memory. After 2 days of free exploration in the maze (habituation), mice were submitted to 12 consecutive testing sessions: one session of 23 trials (3 “acquisition-only trials,” one by pair, and 20 “acquisition and test trials”) per day, i.e., a total of 276 trials (240 test trials).
Each session consisted of alternate presentations of pairs A, B, and C. The first three trials with each pair were acquisition trials (both arms rewarded). Each of the following trials was at the same time an acquisition trial (for the following trial with the same pair) and a test trial (for the arm visit made during the preceding trial with the same pair); the rewarded arm was the one that has not been visited on the preceding trial with the same pair. Memory demand varied across successive trials according to the retention interval RI (i.e., the number of intervening trials with other pairs between two successive presentations of the same pair). The retention interval for one specific arm visit (e.g., within pair A) depends on the number of concurring trials (i.e., with pairs B and C) occurring till next trial with the same pair (A). Indeed, such a variable amount of interposed trials proportionally increases the delay between acquisition and test and may also generate retroactive interference. There are five levels of retention interval: from 0, corresponding to “no interposed pair,” to 4, corresponding to a sequence of four interposed trials between n-1 and n trials.
During habituation, the time needed for visiting all six arms per session day was measured. During memory testing, memory performance was evaluated according to the percentage of correct alternation responses between successive trials with the same pair in three different manners.

mice = assay: Primary observation (Irwin) test; settings: donepezil alone
Description: Male Rj: C57BL/6J mice (Elevage Janvier, 53940 Le Genest-Saint-Isle, France), 23–27 g body weight range, were stabilized for at least 5 days after delivery in macrolon cages in groups of 10 (housing period) (25 × 19 × 13 cm) and then of 4 (starting the day before the test and during the test) in macrolon cages (25 × 19 × 13 or 32 × 13 × 14 cm) on wood litter with free access to food and water.
Between one and three treated groups were compared with the same control at any one time. […] In order to keep the same conditions, all the mice receiving a single treatment also received another administration with vehicle.
Behavioral modifications, physiological and neurotoxicity symptoms, and rectal temperature were recorded according to a standardized observation grid derived from that of Irwin. The grid contains the following items: death*, convulsions*, tremor*, Straub tail*, altered activity, excitation, jumping*, abnormal gait* (rolling, tip-toe), motor incoordination*, altered muscle tone, loss of grasping, akinesia, catalepsy, loss of traction, writhing*, piloerection*, stereotypies* (sniffing, chewing, head movements), head-twitches*, scratching*, altered respiration*, aggression*, altered fear, altered reactivity to touch, ptosis, exophthalmia, loss of righting reflex, loss of corneal reflex, analgesia, defecation/diarrhea, salivation, lacrimation, and rectal temperature (hypothermia/hyperthermia).

[3] = tested on: middle-aged mice (14–15 months old); assay: Contextual serial discrimination (CSD) task; type: in vivo, mouse; settings: for Post hoc analysis of donepezil effect on SCM score for all S 47445 levels (Dunnett, versus vehicle group): all levels of S 47445 pooled
Description: (§1) Treatments were administered per os daily for nine consecutive days for studies involving the CSD and SA tasks. The 8th and the 9th oral administrations were given 60 min before acquisition and test phases in the CSD task, or before the training and the test sessions in the SA task.
The studies were carried out on mice according to the procedure described in full by Celerier et al. ([2004]) and Tronche et al. ([2010]) (Fig.1). Briefly, the mouse learns two consecutive spatial discriminations (D1 and D2) in a four hole-board apparatus (45 × 45 × 30 cm) enclosed with gray Plexiglas walls. The floor of the hole-board was interchangeable (white and rough versus black and smooth). On the floor, four holes opening on a food cup (3-cm diameter × 2.5-cm depth) were located 6 cm away from the sidewalls. Photocells located into the holes allowed an automatic recording of the number of head-dips in each hole.
Fig. 1 a Contextual serial discrimination: at the acquisition phase, mice performed two consecutive spatial discrimination sessions varying by the color and texture of the floor, i.e., D1, discrimination 1, and D2, discrimination 2. For each discrimination session, only one out of the four holes of the apparatus was baited (hashed circles). […] One hour prior to acquisition and test phases, mice received a per os administration of the compounds or vehicle solution in a chamber placed in a room (room C) different from the one in which the behavioral experiments were conducted (room A). Subsequently, mice were submitted to the test phase in which they were repositioned on the floor of the first discrimination without any food pellet in the apparatus. b Two types of responses were calculated: (i) correct responses corresponding to head-dips into the hole baited at the acquisition of the first discrimination (D1), on the same floor context; (ii) interference responses corresponding to head-dips into the hole baited at the other (second) discrimination (D2). Both parameters allow calculation of the SCM score
Mice were partially food-deprived for 1 week prior to experimentation and were maintained on a 12 ± 2% loss of their body weight throughout behavioral testing to increase motivation for food reward. During the food deprivation phase, mice were handled daily to familiarize them with the experimenter.
During the acquisition session, mice were first placed at the center of the board in a plastic tube for 15 s and then learned two successive spatial discriminations (D1 and D2) for 6 min each and were each separated by a 2-min interval. Between two sessions, each mouse was placed in its home cage in an animal housing room. For D1, ten 20-mg pellets were available only in one of the four holes in the board. For D2, ten 20-mg pellets were located in the opposite symmetrical hole. The environmental spatial cues remained at the same place for D1 and D2. Within each group, the floors used for the first and second discrimination (D1 and D2) were counterbalanced at the acquisition phase from one mouse to the other. A minimal amount of eight pellets should be eaten per mouse at either D1 or D2 during the acquisition phase.
During memory testing, D1 and D2 discriminations were performed in independent groups of mice, being replaced either on the floor of D1 or of D2. The food-deprived mice were replaced either on the floor of D1 or on the floor of D2. In each case, mice were allowed to explore the apparatus freely and performance was assessed by measuring the exploration for each hole for 6 min without any pellets in the apparatus. During the procedure, photocells allowed measurement of the number of head dips in each hole. Different parameters were further calculated: % of correct responses (head-dips into the hole previously baited on the same floor context), % of interfering responses (head-dips into the hole previously baited on the other floor context), and % of errors (head-dips into the two holes never previously baited).

[4] = tested on: aged mice (18–19 months old); assay: Sequential/spontaneous alternation (SA) working memory task in T-maze; type: in vivo, mouse; settings: donepezil 0.1 mg/kg p.o. alone, ITI 90 s, n = 12
Description: as §1
The spontaneous alternation (SA) task was performed in independent groups of mice as regards to the CSD and radial maze tasks. The SA task allows investigation of aged-induced working memory impairments (Vandesquille et al. [2011]). In this task, mice are submitted to a series of successive choices in a T-maze. To alternate from trial to trial, animals have to remember at each choice (except the first one) only the previous trial and to reset the interfering information from trial to trial over a series. This resetting mechanism is a main aspect of working memory (Aggleton et al. [1986]; Béracochéa and Jaffard, [1987]; Kesner [2005]).
Behavioral tests were conducted in a gray Plexiglas T-maze. Stem and arms are 35 cm long, 15 cm wide, and 10 cm high. The starting box (10 cm × 12 cm) and each goal arm are separated from the central alley by a vertical sliding door, with opening and closing monitored by a computer. Photoelectric cells allow recording of both the choice of the goal arm (left or right) and the latency (in seconds) that elapsed between the opening of the starting box and the closing of the goal box. The T-maze is located at the center of a room with various allocentric cues (white or black or striped card boards) located on the wall 1 m above the apparatus.
Animals were not food deprived, and no food reinforcement was used. Animals were first submitted to a habituation phase consisting of two free exploration sessions of 10 min each, over two consecutive days (one session per day) in the apparatus with all doors opened. At the end of the habituation phase, all animals were submitted to a training phase, involving a series of seven successive trials separated by a 30-s intertrial interval (ITI). The training phase was aimed at familiarizing the animals with the opening and closing of the doors.
For the training session, animals were submitted to a sequence of seven successive identical trials. At the beginning of a trial, mice were placed in the starting box and after a confinement period (30 s, predefined ITI), the door to the stem was opened. When the mouse entered one of the goal arms, the door was closed and the chosen arm was recorded. After a 30-s confinement period in the chosen arm, the mouse was gently returned to the starting box for a second trial, identical to the first one. To avoid olfactory cues in the apparatus, visible traces of urine were removed and the general procedure was implemented as in the training phase, except that the ITI was extended to 90 s and animals were submitted to a series of […] successive trials. […] Moreover, an 8th trial was added to the series which was separated from the 7th one by a 5-s ITI. […] The alternation score (in percentage) was used as an index of memory performance. An alternation is defined as a visit in a given arm followed by a visit into the other arm. The successive sequence of visits for the seven first trials determines the level of alternation. A percentage of alternation was calculated: number of alternations performed/number maximal of alternation. This percentage is calculated for each mouse.
For the sequential alternation task, mean and standard errors of the mean (SEM) were calculated for each group of treatment. In addition to % alternation drawn over the seven trials of the series, behavioral performances were also expressed in percentage of alternation drawn from blocks of two consecutive trials (block 1: trials 2 + 3; block 2: trials 4 + 5; block 3: trials 6 + 7). The analyses per trial blocks allowed evaluation of proactive interference over the series (Vandesquille et al. [2011], [2013]). Statistical analyses were performed using the Statview 5.0 software. […]

In the case of `COc1cc2c(cc1OC)C(=O)C(CC1CCN(Cc3ccccc3)CC1)C2` (centres unmarked) [Donepezil, reference compound], the “Activity in radial maze working memory task” value ([1]; donepezil 0.3 mg/kg i.p.) is given as “limited to the organizational component of the task”, the “Active dose in the same working memory task” value ([1]; donepezil) is given as 0.3 mg/kg but not of 1 mg/kg was found to be active and the “Performance as a function of retention interval (RI 0–4) versus chance level” value [2] is given as “remained significantly above chance up to RI = 3”. For the same compound, the “Symptoms observed in the Irwin test” value (mice; 3 mg/kg p.o.) was “Tremor, hypothermia, and decreases in activity, abdominal muscle tone, and reactivity to touch”, the “Additional symptoms observed in the Irwin test” value (mice; 10 mg/kg p.o.) was “Straub tail and abnormal gait (rolling)” and the “Observable effects in the Irwin test” value (mice; dose range 3–10 mg/kg p.o., mice) was “clear and dose-dependent sedative/myorelaxant effects”. For the same compound, the “Total number of explorations and % exploration of the baited hole, acquisition phase” value ([3]; Experiment 1 (study A and B), compounds alone, p> 0.10 in all analyses) was “No significant between-groups difference”, the “Memory performance in the second discrimination (D2)” value ([3]; Experiment 1, S 47445 at all doses, donepezil at the active doses, versus middle-aged vehicle, data not shown) was “did not alter memory performance” and the “Total number of head-dips, test phase” value ([3]; Experiment 1, versus vehicles (p > 0.10 in all comparisons), data not shown) was “no significant effect”. For the same compound, the “SCM score of the second discrimination (D2), dose effect at pooled levels of the other drug” value ([3]; Supplemental data 2, S 47445 0.03–0.3 mg/kg p.o. (p=0.951), Donepezil 0.03 and 0.1 mg/kg (p=0.074)) was “no significant effect”, the “Post hoc analysis of donepezil effect on SCM score for all S 47445 levels (Dunnett, versus vehicle group)” value ([3]; donepezil 0.03 mg/kg) was “NS (p = 0.079) (NS p > 0.050)” and the “Post hoc analysis of donepezil effect on SCM score for all S 47445 levels (Dunnett, versus vehicle group)” value ([3]; donepezil 0.1 mg/kg) was “*** (***p ≤ 0.001)”. For the same compound, the “Alternation score, 3rd block of trials (trials 6 + 7)” value [4] was 45.833 ± 4.167 n = 12% and the “Alternation score, seven first trials of the series” value [4] was “alternated significantly above vehicles”.
